Measured values as given in patent US11021445B2, “Carboxylic acid derivative as AT2R receptor antagonist” (SHANDONG DANHONG PHARMACEUTICAL CO., LTD., priority 2017, dated 2021).
Read-outs that look alike come from different tables or passages of the source.

Assays:
[1] = Plasma protein binding rate (PPB) test, equilibrium dialysis; assay type: in vitro ADME, Sprague-Dawley rats; details: Sprague-Dawley, rat, 37°C, read-out: Plasma Protein Binding (%) SD Rat Plasma (converted)
Description: (§1) In vitro protein binding rates of 0.2 μM, 2 μM, 10 μM of test compounds with Sprague-Dawley rats, beagle dogs, human plasma were determined by equilibrium dialysis.
(§2) The experiment will use a 96-well equilibrium dialysis plate (HTDialysis device) to determine the plasma protein binding rate of the to-be-tested compound and the control compounds.
(§3) Prior to the start of the experiment, the dialysis membrane was pretreated according to the instructions for use and the dialysis unit was assembled as required.
(§4) Blank plasma was taken from CD-1 mice, Sprague-Dawley rats, Beagle dogs, cynomolgus monkeys and humans (an anticoagulant is EDTA-K2, which is a commercial product purchased, or is collected and prepared by the Drug Evaluation Department of Wuxi AppTech, and is stored in a refrigerator below −60° C. before use). A certain volume of the to-be-tested compound or the control compound working solution was added to prepare plasma samples of the compound to be tested at a concentration of 0.2, 2, 10 μM and plasma samples of the control compound at a concentration of 2 μM (n=1). The organic phase content was ≤1%. First, a certain volume of a plasma sample containing the to-be-tested compound and the control compound was taken out into the sample receiving plate as a sample at zero time (T0 sample, n=3); secondly, a plasma sample containing the to-be-tested compound and the control compound was added to one side of the dialysis membrane (plasma end, n=3), and a certain volume of dialysis buffer (buffer end, n=3) was added to the other side of the dialysis membrane; then the dialysis plate was placed in a humidified incubator with 5% CO2 for incubation for 4 hours at 37±1° C.
(§5) After the incubation, a certain volume of the dialyzed buffer sample (F sample) and the dialyzed plasma sample (T sample) were transferred to the sample receiving plate, and all samples were subjected to protein precipitation for LC/MS/MS analysis. And the dissociation rate of the compound (% Unbound) was calculated by the following formula: % Unbound=100*[F]/[T], % Bound=100−% Unbound. Wherein, % Unbound is the dissociation rate of the compound; % Bound is the binding rate of the compound; [F] is the concentration of the compound at the buffer end of the dialysis plate; [T] is the concentration of the compound at the plasma end of the dialysis plate; and the experimental results are shown in Table 7.

CYP1A2 = biological target: T1, CYP1A2 (Homo sapiens, UniProt P05177); assay: Human liver microsome CYP inhibition experiment; assay type: in vitro ADME; details: pooled human liver microsomes; read-out: Cytochrome P450 isoenzyme IC50 CYP1A2
T1 construct: Mixed human liver microsomes (pooled HLM, n≥50) were purchased from Corning Inc; tissue Corning Inc. or other qualified suppliers; host or cells: pooled human liver microsomes (n≥50)
T1 sequence (P05177 1-516): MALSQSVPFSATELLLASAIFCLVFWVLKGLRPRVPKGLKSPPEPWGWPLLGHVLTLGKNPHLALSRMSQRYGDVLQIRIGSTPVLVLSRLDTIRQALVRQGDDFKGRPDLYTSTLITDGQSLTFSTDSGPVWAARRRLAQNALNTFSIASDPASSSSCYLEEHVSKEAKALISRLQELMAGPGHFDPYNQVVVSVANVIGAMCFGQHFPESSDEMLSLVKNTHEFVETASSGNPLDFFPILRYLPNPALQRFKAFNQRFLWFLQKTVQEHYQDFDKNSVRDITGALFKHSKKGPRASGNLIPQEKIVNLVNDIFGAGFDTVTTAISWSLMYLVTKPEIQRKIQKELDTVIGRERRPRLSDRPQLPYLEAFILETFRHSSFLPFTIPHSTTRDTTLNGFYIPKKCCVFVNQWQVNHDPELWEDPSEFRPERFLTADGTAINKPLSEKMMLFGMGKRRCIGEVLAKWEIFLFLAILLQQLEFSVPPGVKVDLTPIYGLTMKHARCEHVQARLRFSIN
Description: (§6) The research project used a specific probe substrate for each isoenzyme to evaluate the inhibitory effect of the test compound on human liver microsomal cytochrome P450 isoenzymes (CYPIA2. CYP2C9, CYP2C19, CYP2D6, and CYP3A4). Mixed human liver microsomes (pooled HLM, n≥50) were purchased from Corning Inc. (Steuben, N.Y., USA) or other qualified suppliers, and were stored in a refrigerator below −60° C. before use. The diluted series of to-be-tested compound working solutions were added to an incubation system containing cofactors of human liver microsomes, a probe substrate and a circulation system, and the methanol content was about 1% (v/v) of the final incubation system. A control containing no the to-be-tested compound and containing a solvent was used as a control for enzyme activity (100%). The concentration of the analyte in the sample was determined by liquid chromatography-tandem mass spectrometry (LC/MS/MS). The calculation was performed by using the average of the concentrations of the samples (a blank solvent, a positive control inhibitor, or the to-be-tested compound). Non-linear regression analysis was performed by using SigmaPlot (V.11) on the average percent activity of the compound to be tested to the concentration. The IC50 value was calculated by a three-parameter or four-parameter inflection logarithmic equation.

CYP2D6 = biological target: T2, CYP2D6 (Homo sapiens, UniProt P10635); assay: Human liver microsome CYP inhibition experiment; assay type: in vitro ADME; details: pooled human liver microsomes; read-out: Cytochrome P450 isoenzyme IC50 2D6
T2 construct: Mixed human liver microsomes (pooled HLM, n≥50) were purchased from Corning Inc; tissue Corning Inc. or other qualified suppliers; host or cells: pooled human liver microsomes (n≥50)
T2 sequence (P10635 whole entry): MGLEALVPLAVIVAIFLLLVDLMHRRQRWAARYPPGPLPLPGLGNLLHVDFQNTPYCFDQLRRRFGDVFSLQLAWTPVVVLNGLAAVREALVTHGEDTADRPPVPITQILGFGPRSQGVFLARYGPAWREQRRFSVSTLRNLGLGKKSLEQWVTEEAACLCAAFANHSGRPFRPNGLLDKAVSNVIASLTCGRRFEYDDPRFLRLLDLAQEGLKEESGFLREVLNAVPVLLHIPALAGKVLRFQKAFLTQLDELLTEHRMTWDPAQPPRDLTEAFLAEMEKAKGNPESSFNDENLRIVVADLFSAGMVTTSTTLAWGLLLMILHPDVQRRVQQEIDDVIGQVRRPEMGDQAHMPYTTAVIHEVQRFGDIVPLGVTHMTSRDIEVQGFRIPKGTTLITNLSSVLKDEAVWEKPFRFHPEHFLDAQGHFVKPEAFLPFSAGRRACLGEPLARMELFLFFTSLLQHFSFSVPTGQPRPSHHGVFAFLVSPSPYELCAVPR
Description: as §6

CYP2C9 = biological target: T3, CYP2C9 (Homo sapiens, UniProt P11712); assay: Human liver microsome CYP inhibition experiment; assay type: in vitro ADME; details: pooled human liver microsomes; read-out: Cytochrome P450 isoenzyme IC50 2C9
T3 construct: Mixed human liver microsomes (pooled HLM, n≥50) were purchased from Corning Inc; tissue Corning Inc. or other qualified suppliers; host or cells: pooled human liver microsomes (n≥50)
T3 sequence (P11712 whole entry): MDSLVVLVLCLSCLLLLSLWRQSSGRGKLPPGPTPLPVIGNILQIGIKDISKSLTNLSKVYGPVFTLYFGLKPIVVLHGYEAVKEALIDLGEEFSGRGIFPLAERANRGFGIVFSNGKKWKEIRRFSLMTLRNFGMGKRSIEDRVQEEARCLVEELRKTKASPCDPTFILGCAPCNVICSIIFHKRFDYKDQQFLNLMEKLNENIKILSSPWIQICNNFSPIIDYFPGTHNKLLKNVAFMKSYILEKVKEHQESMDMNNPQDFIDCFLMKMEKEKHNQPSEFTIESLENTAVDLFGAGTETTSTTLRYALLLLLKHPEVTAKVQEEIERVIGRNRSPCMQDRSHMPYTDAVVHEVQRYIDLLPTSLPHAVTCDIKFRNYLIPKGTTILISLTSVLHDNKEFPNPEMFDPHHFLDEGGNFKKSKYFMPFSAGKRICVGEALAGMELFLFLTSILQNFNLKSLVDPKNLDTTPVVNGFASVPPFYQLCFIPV
Description: as §6

CYP3A4 = biological target: T4, CYP3A4 (Homo sapiens, UniProt P08684); assay: Human liver microsome CYP inhibition experiment; assay type: in vitro ADME; details: pooled human liver microsomes; read-out: Cytochrome P450 isoenzyme IC50 3A4
T4 construct: Mixed human liver microsomes (pooled HLM, n≥50) were purchased from Corning Inc; tissue Corning Inc. or other qualified suppliers; host or cells: pooled human liver microsomes (n≥50)
T4 sequence (P08684 whole entry): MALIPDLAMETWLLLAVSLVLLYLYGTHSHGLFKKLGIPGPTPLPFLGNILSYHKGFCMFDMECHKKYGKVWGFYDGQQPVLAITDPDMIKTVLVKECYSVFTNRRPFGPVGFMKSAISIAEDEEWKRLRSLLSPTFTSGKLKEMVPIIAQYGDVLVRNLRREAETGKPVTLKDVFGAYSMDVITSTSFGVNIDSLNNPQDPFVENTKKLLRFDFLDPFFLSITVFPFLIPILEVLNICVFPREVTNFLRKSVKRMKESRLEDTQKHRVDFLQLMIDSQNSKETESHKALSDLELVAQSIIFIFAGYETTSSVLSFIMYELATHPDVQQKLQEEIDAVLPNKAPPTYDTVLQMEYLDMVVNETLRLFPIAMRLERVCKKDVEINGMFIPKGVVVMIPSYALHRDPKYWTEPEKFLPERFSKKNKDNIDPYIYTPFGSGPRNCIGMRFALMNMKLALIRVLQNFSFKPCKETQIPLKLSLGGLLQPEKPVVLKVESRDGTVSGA
Description: as §6

CYP2C19 = biological target: T5, CYP2C19 (Homo sapiens, UniProt P33261); assay: Human liver microsome CYP inhibition experiment; assay type: in vitro ADME; details: pooled human liver microsomes; read-out: Cytochrome P450 isoenzyme IC50 2C19
T5 construct: Mixed human liver microsomes (pooled HLM, n≥50) were purchased from Corning Inc; tissue Corning Inc. or other qualified suppliers; host or cells: pooled human liver microsomes (n≥50)
T5 sequence (P33261 whole entry): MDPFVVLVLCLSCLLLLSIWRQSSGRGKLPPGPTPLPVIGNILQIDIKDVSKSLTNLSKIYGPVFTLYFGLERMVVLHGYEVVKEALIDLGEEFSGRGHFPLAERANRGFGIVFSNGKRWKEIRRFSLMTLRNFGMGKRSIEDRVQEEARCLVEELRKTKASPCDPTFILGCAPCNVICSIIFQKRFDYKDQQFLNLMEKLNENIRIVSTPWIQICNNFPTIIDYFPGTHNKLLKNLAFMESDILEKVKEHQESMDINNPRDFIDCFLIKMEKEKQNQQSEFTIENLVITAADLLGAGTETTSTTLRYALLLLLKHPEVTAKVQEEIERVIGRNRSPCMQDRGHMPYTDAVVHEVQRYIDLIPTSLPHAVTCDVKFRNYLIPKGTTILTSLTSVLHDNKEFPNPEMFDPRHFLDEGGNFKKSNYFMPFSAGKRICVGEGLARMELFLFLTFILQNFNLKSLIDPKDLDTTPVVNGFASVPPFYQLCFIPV
Description: as §6

[2] = Plasma protein binding rate (PPB) test, equilibrium dialysis; assay type: in vitro ADME; details: human, 37°C
Description: as §1, §2, §3, §4, §5

Row | fraction unbound at 4 h [1] | IC50 (CYP1A2) [µM] | IC50 (CYP2D6) [µM] | IC50 (CYP2C9) [µM] | IC50 (CYP3A4) [µM] | IC50 (CYP2C19) [µM] | fraction unbound at 4 h [2] | SMILES
1 | 0.001 | > 50 | > 50 | 30.5 | > 50 | > 50 | 0.004 | COc1ccc2c(c1OCc1ccccc1)C[C@@H](C(=O)O)N(C(=O)[C@@H](OC1CCCC1)c1ccccc1)C2 [Compound 37]
2 | 0.055 | > 50 | > 50 | 34.4 | > 50 | > 50 | 0.007 | COc1ccc2c(c1OCc1ccccc1)C[C@@H](C(=O)O)N(C(=O)[C@@H](OC1CC(F)(F)C1)c1ccccc1)C2 [Compound 51]
3 | 0.002 | – | – | – | – | – | 0.005 | COc1ccc2c(c1OCc1ccccc1)C[C@@H](C(=O)O)N(C(=O)[C@@H](OC1(C)CCCC1)c1ccccc1)C2 [Compound 57]
4 | 0.011 | > 50 | > 50 | > 50 | > 50 | > 50 | 0.016 | COc1ccc2c(c1OCc1ccccc1)C[C@@H](C(=O)O)N(C(=O)[C@@H](O[C@H]1CC[C@@H](O)CC1)c1ccccc1)C2 [Compound 63]
5 | – | > 50 | > 50 | 14.5 | > 50 | > 50 | – | O=C(O)[C@@H]1Cc2c(ccc(Cl)c2OCc2ccccc2)CN1C(=O)[C@@H](OC1CCCC1)c1ccccc1 [Compound 107]
6 | 0.001 | 13 | > 50 | 7.28 | 9.19 | 17.6 | 0.002 | COc1ccc2c(c1OCc1ccccc1)C[C@@H](C(=O)O)N(C(=O)C(c1ccccc1)c1ccccc1)C2 [EMA-401, reference compound]
